For 35 molecules, IC50 results are on record in US11639353B2, “Cyclobutanes- and azetidine-containing mono and spirocyclic compounds as αV integrin inhibitors” (BRISTOL-MYERS SQUIBB COMPANY, priority 2016, dated 2023).

T1 sequence (P06756 31-992 limits assumed): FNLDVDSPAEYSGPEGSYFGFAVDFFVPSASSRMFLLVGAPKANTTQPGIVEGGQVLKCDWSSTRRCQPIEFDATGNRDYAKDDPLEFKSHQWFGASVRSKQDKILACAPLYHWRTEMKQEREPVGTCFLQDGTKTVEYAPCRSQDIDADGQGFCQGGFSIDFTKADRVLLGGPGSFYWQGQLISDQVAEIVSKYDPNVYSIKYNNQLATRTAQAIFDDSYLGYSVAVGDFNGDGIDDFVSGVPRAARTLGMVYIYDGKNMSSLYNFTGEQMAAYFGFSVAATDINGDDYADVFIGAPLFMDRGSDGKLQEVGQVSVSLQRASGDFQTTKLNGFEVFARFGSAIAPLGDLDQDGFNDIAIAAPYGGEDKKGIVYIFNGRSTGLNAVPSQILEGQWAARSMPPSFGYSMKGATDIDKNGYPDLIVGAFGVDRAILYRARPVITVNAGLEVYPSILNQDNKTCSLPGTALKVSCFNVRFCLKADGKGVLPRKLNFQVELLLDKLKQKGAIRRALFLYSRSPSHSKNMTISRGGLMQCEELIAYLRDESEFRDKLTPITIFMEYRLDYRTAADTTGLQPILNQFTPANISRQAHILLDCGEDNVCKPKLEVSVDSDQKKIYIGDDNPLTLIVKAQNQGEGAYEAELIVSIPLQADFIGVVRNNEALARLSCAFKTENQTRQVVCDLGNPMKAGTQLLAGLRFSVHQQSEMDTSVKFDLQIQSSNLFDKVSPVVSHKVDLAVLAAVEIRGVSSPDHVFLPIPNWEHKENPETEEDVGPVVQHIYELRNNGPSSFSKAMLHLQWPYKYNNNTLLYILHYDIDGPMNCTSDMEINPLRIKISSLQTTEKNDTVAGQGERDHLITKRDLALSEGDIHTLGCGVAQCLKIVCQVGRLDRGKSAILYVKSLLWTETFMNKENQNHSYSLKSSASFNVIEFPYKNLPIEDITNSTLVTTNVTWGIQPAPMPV
T1 sequence (P18564 22-707 limits assumed): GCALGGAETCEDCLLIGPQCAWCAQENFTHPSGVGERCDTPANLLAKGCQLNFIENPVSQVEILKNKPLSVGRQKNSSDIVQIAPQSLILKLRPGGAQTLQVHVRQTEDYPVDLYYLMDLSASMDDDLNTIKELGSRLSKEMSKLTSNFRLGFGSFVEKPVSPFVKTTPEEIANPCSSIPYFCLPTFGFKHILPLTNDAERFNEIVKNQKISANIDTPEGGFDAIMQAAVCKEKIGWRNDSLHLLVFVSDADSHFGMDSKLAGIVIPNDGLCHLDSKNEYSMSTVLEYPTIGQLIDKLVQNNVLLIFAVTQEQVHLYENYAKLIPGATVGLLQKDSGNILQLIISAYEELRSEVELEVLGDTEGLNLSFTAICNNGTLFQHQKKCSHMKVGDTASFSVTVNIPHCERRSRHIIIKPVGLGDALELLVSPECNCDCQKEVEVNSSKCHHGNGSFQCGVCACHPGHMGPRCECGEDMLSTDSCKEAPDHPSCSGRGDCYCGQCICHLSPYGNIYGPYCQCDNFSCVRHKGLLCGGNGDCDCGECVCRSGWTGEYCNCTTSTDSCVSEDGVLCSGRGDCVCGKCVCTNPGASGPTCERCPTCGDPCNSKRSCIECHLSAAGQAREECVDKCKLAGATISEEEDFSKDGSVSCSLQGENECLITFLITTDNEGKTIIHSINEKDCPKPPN

The assay addresses T1, human αVβ6 (Homo sapiens, UniProt P06756+P18564).
T1 construct: purchased R & D systems 3817-AV
The assay is described as follows: human αVβ6 HTRF binding assay. Conditions: alternatively SPA-based assay. How it is done: All binding assays used the HTRF (homogeneous time resolved fluorescence) technology from Cisbio International, therefore all assays are described as HTRF binding assays. The assay results for the Examples are listed above together with the characterization data. The HTRF binding assays are established for the following integrins: human αVβ6, human αVβ1, human αVβ3, human αVβ5, and human αVβ8. All assays used the following assay buffer: 20 mM Tris, pH 7.4, 1 mM MgCl2, 1 mM MnCl2, 0.01% Tween 20, and 0.01% BSA. Alternatively, a SPA-based assay was used for evaluation of receptor binding.
The following describes the components and a representative procedure for the human αVβ6 HTRF binding assay: Recombinant human αVβ6 Integrin (R & D systems, 3817-AV) was biotinylated. Biotinylated human αVβ6 Integrin was added to assay vessel at a final concentration of 1.25 nM. FITC-conjugated fibronectin (Cytoskeleton, FNR02) was then added at the final concentration of 5 nM. The mixture was centrifuged at 600 rpm for three minutes using Thermo Fisher Heraeus Multifuge X3 centrifuge and then incubated at RT for an hour. Streptavidin Terbium (Cisbio international 610STLB) was then added at the final concentration of 0.625 nM. The resulting mixture was centrifuged at 600 rpm for three minutes using Thermo Fisher Heraeus Multifuge X3 centrifuge and then incubated at room temperature overnight in dark before reading HTRF signals.
The SPA-based assay was carried out according to the protocol and procedures similar to the ones described in the following reference with appropriate modifications to agents and ligands which are readily understood by one skilled in the art: Pachter J A, Zhang R, Mayer-Ezell R., “Scintillation proximity assay to measure binding of soluble fibronectin to antibody-captured αVβ1 integrin” Anal Biochem. 1995 Sep. 1; 230(1):101-7.
(Time-resolved FRET reads energy transfer from a long-lived donor to a nearby acceptor.)
Take `O=C(O)C[C@@H](c1ccc(F)c(F)c1)N1CC(CCCCc2ccc3c(n2)NCCC3)C1=O` (some centres unmarked) [Example 113]: the IC50 (commonly the point on the concentration scale where inhibition reaches its midpoint) came out at 12 nM. On to `O=C(N[C@@H](CNC(=O)[C@H]1C[C@@H](Cc2ccc3c(n2)NCCC3)C1)C(=O)O)OCc1ccccc1` [Example 196, (S)-2-(((Benzyloxy)carbonyl)amino)-3-(cis-3-((5,6,7,8-tetrahydro-1,8-naphthyridin-2-yl)methyl)cyclobutane-1-carboxamido)propanoic acid], for which the IC50 amounted to 5.1 nM. `O=C(N[C@@H](CC(=O)N1CC(CCc2ccc3c(n2)NCCC3)C1)C(=O)O)OCC1CCC1` [Example 174, (S)-2-(((cyclobutylmethoxy)carbonyl)amino)-4-oxo-4-(3-(2-(5,6,7,8-tetrahydro-1,8-naphthyridin-2-yl)ethyl)azetidin-1-yl)butanoic acid] gave an IC50 of 68 nM. The result for `Cc1ncc(C(CC(=O)O)N2CC3(CC(Cc4ccc5c(n4)NCCC5)C3)C2)cn1` (centres unmarked) [Example 209, 3-(2-methylpyrimidin-5-yl)-3-(6-((5,6,7,8-tetrahydro-1,8-naphthyridin-2-yl)methyl)-2-azaspiro[3.3]heptan-2-yl)propanoic acid] reads 6.8 nM.

Molecule `COc1ccc(C(CC(=O)O)C2(F)CN(CCCCc3ccc4c(n3)NCCC4)C2)cn1` (centres unmarked) [Example 122] yielded an IC50 of 28 nM.

For the molecule `O=C(O)CC(c1cnc2ccccc2c1)C1CC2(C1)CN(CCc1ccc3c(n1)NCCC3)C2` (centres unmarked) [Example 101], the IC50 is 4.7 nM. In turn, `COc1ccc(C(CC(=O)O)C2(F)CN(CCCCc3ccc4c(n3)NCCC4)C2)cc1F` (centres unmarked) [Example 22, 3-(3-Fluoro-1-(4-(5,6,7,8-tetrahydro-1,8-naphthyridin-2-yl)butyl)azetidin-3-yl)-3-(3-fluoro-4-methoxyphenyl)propanoic acid] had an IC50 of 3.8 nM. The molecule `COc1ccc([C@H](CC(=O)O)NC(=O)[C@H]2C[C@@H](CCc3ccc4c(n3)NCCC4)C2)cc1F` [Example 54] displayed an IC50 of 0.5 nM. As for `O=C(O)C[C@@H](c1cncnc1)N1CC(CCCCc2ccc3c(n2)NCCC3)C1` [Example 157], the figure is 3 nM; as for `O=C(O)C[C@@H](c1cnc2ccccc2c1)N1CC(CCCCc2ccc3c(n2)NCCC3)C1` [Example 153], 1.1 nM; as for `Cc1cc(C)c(S(=O)(=O)N[C@@H](CNC(=O)C2CC3(C2)CN(CCc2ccc4c(n2)NCCC4)C3)C(=O)O)c(C)c1` [Example 35], 2.7 nM. As for `CC(C)(C)c1cc(Br)cc([C@H](CC(=O)O)NC(=O)C2CC3(C2)CN(CCc2ccc4c(n2)NCCC4)C3)c1` [Example 34], the figure is 2 nM; as for `O=C(O)CC(c1cnc2ccccc2c1)N1CC(OCCCc2ccc3c(n2)NCCC3)C1` (centres unmarked) [Example 133], 5.6 nM; as for `O=C(O)CC(c1ccc(N2CCOCC2)nc1)C1CC2(CC(CCc3ccc4c(n3)NCCC4)C2)C1` (centres unmarked) [Example 144], 4.9 nM. Take `O=C(O)C[C@H](NC(=O)C1CC2(C1)CN(CCc1ccc3c(n1)NCCC3)C2)c1cc(Cl)cc(Cl)c1` [Example 33]: the IC50 worked out at 2.7 nM. In turn, `O=C(O)C[C@H](NC(=O)C1CC2(CC(NC(=O)CCc3ccc4c(n3)NCCC4)C2)C1)c1cc(Cl)cc(Cl)c1` (some centres unmarked) [Example 30] yielded an IC50 of 3300 nM. On to `O=C(N[C@@H](CC(=O)N1CC(CCc2ccc3c(n2)NCCC3)C1)C(=O)O)OCc1cccc(F)c1` [Example 176], for which the concentration for half-maximal inhibition (IC50) stood at 294 nM. The result for `CN(C1CN(CCCc2ccc3c(n2)NCCC3)C1)[C@@H](CC(=O)O)c1cc(Cl)cc(Cl)c1` [Example 98] reads 0.53 nM; that for `Cc1ncc(C(CC(=O)O)N2CC3(CC(CCc4ccc5c(n4)NCCC5)C3)C2)cn1` (centres unmarked) [Example 206], 3.3 nM. The molecule `COc1ccc([C@H](CC(=O)O)NC(=O)C2CC3(C2)CN(CCc2ccc4c(n2)NCCC4)C3)cn1` [Example 2, (S)-3-(6-Methoxypyridin-3-yl)-3-(2-(2-(5,6,7,8-tetrahydro-1,8-naphthyridin-2-yl)ethyl)-2-azaspiro[3.3]heptane-6-carboxamido)propanoic acid, 3TFA] came in with an IC50 of 13 nM. The result for `COc1ccc(C(CC(=O)O)C2CC(CCCCc3ccc4c(n3)NCCC4)C2)cn1` (single isomer, unassigned; diastereomer b) [Example 140, 3-(6-Methoxypyridin-3-yl)-3-(3-(4-(5,6,7,8-tetrahydro-1,8-naphthyridin-2-yl)butyl)cyclobutyl)propanoic acid (Diastereomer B)] reads 7.7 nM. `CC(=O)N(CCCc1ccc2c(n1)NCCC2)C1CC(C(CC(=O)O)c2ccc3nccnc3c2)C1` (centres unmarked) [Example 150] gave an IC50 of 6.7 nM. With `O=C(O)C[C@@H](c1cc(Cl)cc(Cl)c1)N1CC(CCCCc2ccc3c(n2)NCCC3)C1=O` (some centres unmarked) [Example 108], the IC50 came out at 0.72 nM. With `O=C(O)C[C@@H](c1ccc2c(c1)OCC2)N1CC(CCCCc2ccc3c(n2)NCCC3)C1` [Example 155], the IC50 was 1.5 nM. Regarding `O=C(O)C[C@@H](c1ccc(F)c(F)c1)N1CC(CCCCc2ccc3c(n2)NCCC3)C1` [Example 154], the IC50 was found to be 1.1 nM. `O=C(O)CC(c1cccc(N2CCOCC2)c1)C1CC2(CC(CCc3ccc4c(n3)NCCC4)C2)C1` (centres unmarked) [Example 145] had an IC50 of 2.7 nM. The result for `O=C(O)C[C@@H](c1cnc2ccccc2c1)N1CC(F)(CCCCc2ccc3c(n2)NCCC3)C1` [Example 166] reads 2.2 nM; that for `O=C(N[C@@H](CNC(=O)C1CC2(C1)CN(CCc1ccc3c(n1)NCCC3)C2)C(=O)O)OCc1ccccc1` [Example 41], 9.3 nM.

Molecule `Cc1cc(C)c(S(=O)(=O)N[C@@H](CNC2CN(CCCc3ccc4c(n3)NCCC4)C2)C(=O)O)c(C)c1` [Example 73] gave an IC50 of 6.5 nM. The result for `Cc1cc(C)c(S(=O)(=O)N[C@@H](CNC(=O)C2CN(CCCc3ccc4c(n3)NCCC4)C2)C(=O)O)c(C)c1` [Example 14, (S)-3-(1-(3-(5,6,7,8-Tetrahydro-1,8-naphthyridin-2-yl)propyl)azetidine-3-carboxamido)-2-(2,4,6-trimethylphenylsulfonamido)propanoic acid] reads 0.7 nM; that for `COc1ccc([C@H](CC(=O)O)N2CC(C)(CCCCc3ccc4c(n3)NCCC4)C2)cc1F` [Example 158, (S)-3-(3-fluoro-4-methoxyphenyl)-3-(3-methyl-3-(4-(5,6,7,8-tetrahydro-1,8-naphthyridin-2-yl)butyl)azetidin-1-yl)propanoic acid], 1.1 nM. In the case of `O=C(O)CCC1CC2(C1)CC(CCc1ccc3c(n1)NCCC3)C2` (centres unmarked) [Example 124], the IC50 is 93 nM. Take `CCOC(=O)[C@H](CNC(=O)[C@H]1C[C@@H](Cc2ccc3c(n2)NCCC3)C1)NC(=O)OCc1ccccc1` [Example 195, Ethyl (S)-2-(((benzyloxy)carbonyl)amino)-3-(cis-3-((5,6,7,8-tetrahydro-1,8-naphthyridin-2-yl)methyl)cyclobutane-1-carboxamido)propanoate]: the IC50 stood at 13 nM. The molecule `COc1ccc(C(CC(=O)O)C2CC3(C2)CN(CCCc2ccc4c(n2)NCCC4)C3)cn1` (centres unmarked) [Example 99] displayed an IC50 of 5.9 nM.

With `COc1ccc([C@H](CC(=O)O)NC(=O)C2CC(C(Cc3ccc4c(n3)NCCC4)NS(=O)(=O)c3ccc(C)cc3)C2)cc1F` (stereo partly drawn) [Example 25, (3S)-3-(3-Fluoro-4-methoxyphenyl)-3-(3-(1-(4-methylphenylsulfonamido)-2-(5,6,7,8-tetrahydro-1,8-naphthyridin-2-yl)ethyl)cyclobutanecarboxamido)propanoic acid], the IC50 worked out at 3 nM.
